Results on eight compounds are retold here after patent US4968686A, “Acyclic pyrrolo [2,3-d]pyrimidine analogs as antiviral agents” (The Regents of The University of Michigan, priority 1989, dated 1990).

SMILES strings stand for the structures.

In one series the test system is viruses. The following applies: cited from earlier work.
Series [1] deals with HCMV. As to the kind of experiment: HCMV plaque (focus) reduction assay. Format: cell-based. The following applies: Human betaherpesvirus 5; Table 1; HFF cells; read-out: 50% Inhibitory Concentration HCMV Plaque. An excerpt:
(§1) The 148 strain of HSV-1 was used in most experiments and was provided by Dr. T. W. Schafer of Schering corporation. The HF strain of HSV-1 was used in selected experiments and was obtained from Dr. G. H. Cohen, University of Pennsylvania. The Towne strain, plaque-purified isolate Po, of HCMV was a gift of Dr. Mark Stinski, University of Iowa.
(§2) HCMV was titered in 24-well cluster dishes which were planted to contain 5×10^4 cells/well, grown as described above. When the cells were 70 to 80% confluent, 0.2 ml of the virus suspension was added per wall and adsorbed as described above. At least three ten-fold dilutions of each preparation were used. Following virus adsorption, the cell sheets were overlayed with 0.5% methocel (4000 CPS) in maintenance medium [MEM(E) with 1.1 gm/liter NaHCO3, 100 units/ml penicillin G, 100 μg/ml streptomycin, and 5% fetal bovine serum]. The cultures were incubated in a humidified atmosphere of 4% CO2 -96% air. Viral foci were visible 5 to 7 days after infection using at least 10-fold magnification. Cells were fixed and stained by a 10-minute exposure to a 0.1% solution of crystal violet in 20% methanol 7 to 12 days after infection. Microscopic foci were enumerated at 20-fold magnification using a Nikon Profile Projector.
(§3) The effect of compounds of the replication of HCMV has been measured using both a plaque (focus) reduction assay and a titer (yield) reduction assay. For the former, HFF cells in 24-well culture dishes were infected with approximately 50 p.f.u. of HCMV per well using the procedures detailed above. Compounds dissolved in growth medium were added in three to six selected concentrations to triplicate wells following virus adsorption. Following incubation at 37° C. for 7 to 10 days, cell sheets were fixed, stained and microscopic foci were enumerated as described above. Drug effects were calculated as a percentage of reduction in number of foci in the presence of each drug concentration compared to the number observed in the absence of drug. DHPG (ganciclovir) was used as a positive control in all experiments.
(§4) Dose-response relationships were used to compare drug effects. These were constructed by linearly regressing the percent inhibition of parameters derived in the preceding sections against log drug concentrations. The 50% inhibitory (I50) concentrations were calculated from the regression lines using the methods described by Goldstein. See Goldstein, A., Biostatistics: An Introductory Text, MacMillan, N.Y., 1964, pp. 156-161. Along with the I50 concentration for visual cytotoxicity, the averaged I50 concentrations are compared to I50 concentrations for inhibition for HCMV or HSV-1 replication. Compounds for which the ratio of cytotoxicity I50 concentrations to antiviral I50 concentrations (in vitro therapeutic index) were greater than 10, were considered for further study.

For series [2], the system named is HCMV. Description: HCMV titer (yield) reduction assay. The class given is cell-based. The following applies: Human betaherpesvirus 5; for IC90: Table 1, I90, HFF cells, read-out: HCMV Yield, 90% inhibitory concentration (I90).
From the text: as §1, §2
(§5) For titer reduction analysis, HFF cells were planted as described above in 24-well cluster dishes or in 25 cm^2 flasks. When monolayers were approximately 70% confluent, HCMV was added at a m.o.i. of 0.5 p.f.u. per cell and adsorbed as detailed above. Compounds dissolved in growth medium were added in one or one-half logarithm10 dilutions and incubation continued at 37° C. After 7 to 10 days of incubation, culture dishes or flasks were frozen at […] For titer determination, cells were thawed and then subjected to two more cycles of freezing and thawing at 37° C. Serial, one-logarithm10 dilutions of the final suspension were prepared and inoculated onto new cultures of HFF cells. Titer determination was as detailed above in part (1) (b).
as §4

The next series has as its system HSV-1. Description: HSV-1 plaque reduction assay, strain S148. Format: cell-based, herpes simplex virus type 1 (strain S148) in BSC-1 cells. To be noted: Human alphaherpesvirus 1; Table 1; strain S148; BSC-1 cells; read-out: 50% Inhibitory Concentration HSV-1 Plaque.
From the text: as §1
HSV-1 was titered using monolayer cultures of BSC-1 cells. Cells were planted at 3×10^5 cells/well using 6-well cluster dishes. MEM(E) supplemented with 10% fetal bovine serum was employed as medium. After 22-24 hours, cells were 90% confluent and were inoculated in triplicate using at least three ten-fold dilutions with 0.2 ml of the virus suspension to be assayed and incubated in a humidified 4% CO2 […] atmosphere for one hour to permit viral adsorption. Following virus adsorption, the cell sheet was overlayed with 5 ml of MEM(E) with 5% serum plus 0.5% methocel (4000 CPS) and incubated an additional two to three days. Cells were fixed and stained with 0.1% crystal violet in 20% methanol and macroscopic plaques enumerated.
Plaque reduction experiments were HSV-1 were performed using monolayer cultures of BSC-1 cells. The assay was performed exactly as described above except that the 0.2 ml virus suspension contained approximately 100 p.f.u. of HSV-1. Compounds to be tested were dissolved in the overlay medium at concentrations usually ranging from 0.1 to 100 μM in half-or-one logarithm10 dilutions. Titer reduction assays were performed by planting KB cells in 25 cm^2 plastic tissue culture flasks 10 to 24 hours prior to infection. At the onset of experiments, logarithmically growing replicate monolayer cultures were 60 to 80% confluent and contained 2.5 to 4.5×10^6 cells/flask. Medium was decanted and the cultures were infected with 2 to 10 p.f.u. of HSV-1 per cell. Virus was contained in 1.0 ml of VGM supplemented with 5% fetal bovine serum. After a 1 hour adsorption period at […], the cell sheet was rinsed twice with 2 ml of VGM without serum to remove unadsorbed virus and 5 ml of VGM containing drugs at three to five selected concentrations added in duplicate. Following an 18- to 22-hour incubation at 37° C., infected monolayers were treated with EDTA-trypsin to suspend the cells; aliquots were removed, subjected to three cycles of freezing and thawing, and stored at -76° C. for subsequent virus assay. Virus was titered on BSC-1 cells as described above.
as §4
(Plaques are areas of infected cells; plaque reduction assays count them against a control.)

Series [3] in a line: Visual cytotoxicity scoring in HFF cells. The class given is cell-based. To be noted: human, Table 1, at time of HCMV plaque enumeration, read-out: 50% Inhibitory Concentration Cytotoxicity HFF (visual).
From the text: (§6) Cytotoxicity produced in HFF and BSC-1 cells was estimated by visual scoring of cells not affected by virus infection in the HCMV and HSV-1 plaque reduction assays. Cytopathology was estimated at 35- and 60-fold magnification and scored on a zero to four plus basis. Wells were scored on the day of staining.
as §4

Series [4] is described as follows: Visual cytotoxicity scoring in BSC-1 cells. Format: cell-based. To be noted: african green monkey, Table 1, at time of HSV-1 plaque enumeration, read-out: 50% Inhibitory Concentration Cytotoxicity BSC (visual).
From the text: as §6, §4

The nature of a further series: in vitro. To be noted: human, kb cells. Format: cell-based, human. The procedure: (§7) KB or HFF cells were planted using a Costar Transplate-96 (Costar, Cambridge, Mass.) in Costar 96-well cluster dishes at a concentration of 10,000 to 12,000 cells per well. Wells were suspended in 200 μl of medium [MDM(H) plus 0.7 gm/liter NaCHO3 supplemented with 10% calf serum] per well. After incubation of 16 to 24 hours at 37° C. in a humidified atmosphere of 4% CO2 in air, […] of medium was removed per well. One-hundred μl of medium with or without compounds in twice their final concentrations was added to each well using a Titertek Multichannel Pipette. Final concentrations of compounds ranged from 0.1 to 320 μM. Fifty μl of medium containing radioactive precursors also was added to each well to give a final concentration to 1 to 3 μCi/ml of labeled precursor. [^3 H]Thd was diluted with unlabeled dThd to give a final concentration of 3 or 6 μM.
(§8) Logarithmic cell growth occurred during this time with continual uptake of labeled precursors. At the end of the incubation period, cells were individually harvested from each well using a Skatron Cell harvester (Skatronh, Inc., Sterling, Va.). Cultures for individual wells were harvested onto filter paper and washed free of unincorporated label with nine sequential washes with 5% trichloroacetic acid, nine washes with water, and nine with ethanol using the Skatron unit. Filters were dried, circles from individual cultures were punched from the filter mat and placed into mini-vials. Liquid scintillation solution was added, and radioactivity determined in a Beckman model LS8100 liquid scintillation spectrometer. All samples were counted for 2.0 minutes each, with three rounds of counting. Counts per minute were determined following the application of statistical methods to eliminate count rates which fell outside distribution limits defined by Chauvenet's rejection criterion.
(§9) All analyses were performed in triplicate. That is, three culture wells were used per time point, radioactive precursor, and drug concentration in all experiments. Results from triplicate assays were converted to percent of control and plotted as log dose-response curves from which 50% inhibitor (I50) concentrations were interpolated. Three concentrations of vidarabine were included on all plates as a positive control.
as §4

The subject of series [5] is KB cells. Description: cells. Format: cell-based, human. To be noted: Homo sapiens; [3H]dThd incorporation, KB cells; read-out: I50 on [3H]dThd incorporation. The method, then:
as §7, §8, §9, §4

Series [6] deals with HCMV. As to the kind of experiment: HCMV titer, plaque or yield reduction. Format: cell-based, human cytomegalovirus (Towne strain) in HFF cells.
From the text: as §1, §2, §3, §5, §4

Series [7] is described as follows: Growth of KB cells (population doubling times). To be noted: human, kb cells; 100 μM; read-out: reduction of KB cell growth rate. The class given is cell-based, human. The method, then: (§10) Population doubling times and cell viability were measured in uninfected HFF and/or KB cells. Cells were planted in replicate 6-well plastic tissue culture dishes or in 25 cm^2 flasks as described above in part 1. Following an incubation period during which cells attached to the substrate, medium was decanted, the cell sheet rinsed once with HBS, and fresh medium added. The medium consisted of MEM(E) with 1.1 gm NaHCO3 /liter and 10% fetal bovine or calf serum plus appropriate log or half-log concentrations of drug. After additional periods of incubation from 1 to 72 hours at 37° C., cells were harvested by means of 0.05% trypsin plus 0.02% EDTA in a HEPES-buffered salt solution. Cells were enumerated using either a Coulter counter or a hemocytometer and viability determining using trypsan blue dye exclusion.
(§11) In more extensive cytotoxicity testing, the halogenated compounds were tested for effects on the growth of KB cells. Populations doubling times were calculated from the logarithmic portions of growth curves and were as follows: […]

The test system of series [8] is KB cells. Description: Growth of KB cells (population doubling times). Format: cell-based, human. The method, then:
as §10, §11

On to `N#Cc1cn([C@@H]2O[C@H](CO)[C@@H](O)[C@H]2O)c2ncnc(N)c12` [toyocamycin], for which the “antiviral activity previously reported” value with viruses is “Broad spectrum antiviral activity”.

Turning to `NC(=S)c1cn(COC(CO)CO)c2ncnc(N)c12` [UMJD 239, 4-Amino-7-[(1,3-dihydroxy-2-propoxy)methyl]pyrrolo[2,3-d]-pyrimidine-5-thiocarboxamide], the figures for the IC50 in the series with HCMV [1], with HSV-1 and in the series on KB cells [5] were 8 µM, more than 100 µM and 28 µM, respectively. Besides, the IC90 with HCMV [2] worked out at 25 µM. For the same compound, the CC50 (in [3]; in [4]; in “in vitro”) was more than 100 µM in each case.

In the case of `NC(=O)c1cn([C@@H]2O[C@H](CO)[C@@H](O)[C@H]2O)c2ncnc(N)c12` [sangivamycin], the “antiviral activity previously reported” value in the series on viruses is “Broad spectrum antiviral activity”.

As for `OCC(CO)OCn1cc(I)c2c(NO)ncnc21` [UMJD 329, 4-hydroxylamino-5-iodo-7-[(1,3-dihydroxy-2-propoxy)methyl]pyrrolo[2,3-d]pyrimidine], the IC50 in the series with HCMV [1] stood at 18 µM. Also, the IC90 with HCMV [2] stood at 3.2 µM. The CC50 in series [3] is more than 100 µM. The “activity against HCMV (in words)” value in the series with HCMV [6] was “active and nearly as potent as the 4-amino analogs”. The inhibition at 100 µM in series [7] was more than 50%. Further, the “KB cell growth rate (in words)” value in the series with KB cells [8] (10 μM) is recorded as “nearly control rates”. For the same compound, in the series with KB cells [8] (comparison with UMJD 102 / UMJD 183), the “effect on KB cell growth (in words)” value was “considerably lesser effects on cell growth”.

As for `Nc1ncnc2c1ccn2[C@@H]1O[C@H](CO)[C@@H](O)[C@H]1O` [tubercidin], the “antiviral activity previously reported” value in the series on viruses is “Broad spectrum antiviral activity”.

Consider `OCC(CO)OCn1cc(Cl)c2c(NO)ncnc21` [UMJD 328, 4-hydroxylamino-5-chloro-7-[(1,3-dihydroxy-2-propoxy)methyl]pyrrolo[2,3-d]pyrimidine], for which the IC50 with HCMV [1] stood at 56 µM. In addition, in the series with HCMV [2], the IC90 came to 24 µM. The CC50 in series [3] is more than 100 µM. The “activity against HCMV (in words)” value in the series with HCMV [6] is “active and nearly as potent as the 4-amino analogs”.

For `NC(=S)c1cn(COCCO)c2ncnc(N)c12` [UMJD 229, 4-Amino-7-(2-hydroxyethoxymethyl)pyrrolo[2,3-d]pyrimidine-5-thiocarboxamide], the IC50 in the series with HCMV [1] was 11 µM; in the series on HSV-1, more than 100 µM; with KB cells [5], 10 µM. In the series with HCMV [2], the IC90 came to 80 µM. Also, the CC50 is 100 µM in series [3], more than 100 µM in [4] and more than 100 µM in the series “in vitro”. Further, the “activity against HCMV (in words)” value in the series with HCMV [6] was “active”.

For the compound `Nc1ncnc2c1c(I)cn2COC(CO)CO` [UMJD 330, 4-amino-5-iodo-7-[(1,3-dihydroxy-2-propoxy)methyl]-pyrrolo[2,3-d]pyrimidine], in the series with HCMV [1], the IC50 was determined as 3.1 µM. This compound also returned a log reduction at 100 µM with HCMV [2] (FIG. 2, 10-fold higher concentration than UMJD 183 (10 μM)) of 5. Further, in the series on HCMV [2], the IC90 stood at 0.9 µM. In addition, in series [3], the CC50 was more than 100 µM.
